# Assay results reported in publication PMC6406179 (F1000Research, 2018).
# Where no end group is shown, it is not given here.
# Tests used:
# [1] = target: T1, Mannheimia haemolytica leukotoxin (Lkt) (Mannheimia haemolytica, UniProt P16535); assay: cell-based
# [2] = target: T1, Mannheimia haemolytica leukotoxin (Lkt)
# [3] = IC50, concentration of peptide needed to block 50% of Lkt-induced cytolysis of BL3 cells
substance,measurement,setting,value
CPQLLLL [(B) 5-11],IC50,[1]; IC50 (μM),56.2 ± 5 µM
CPQLLLLA [(B) 5-12],IC50,[1]; IC50 (μM),51.5 ± 5.7 µM
CPQLLLLAG [(B) 5-13],IC50,[1]; IC50 (μM),27.8 ± 2 µM
CPQLLLLAGL [(B) 5-14],IC50,[1]; IC50 (μM),6.7 ± 0.5 µM
CPQLLLLAGLL [(B) 5-15],IC50,[1]; IC50 (μM),2.8 ± 0.2 µM
CPQLLLLAGLLA [(B) 5-16],IC50,[1]; IC50 (μM),0.6 ± 0.1 µM
CPQLLLLAGLLAL [C5],fold better at blocking Lkt-induced cytotoxicity compared to the 13-mer R5 peptide,[2],8 fold
same,IC50,[1]; IC50 (μM),1.5 ± 0.1 µM
CPQVLLLAGLLGL [Eland C5V8G16],IC50,[1]; IC50 (uM) aa 5-17,0.5 ± 0.1 µM
MLHQRPQLLLLAGLLALQSVLS [H3R5],IC50,[1]; [3],21.6 µM
MLRQCPQLLLLAGLLALQSVLS [R3C5],IC50,[1]; IC50 (μM),6.8 ± 0.5 µM
same,IC50,[1]; [3],5.9 µM
MLRQRPQLLLLAGLLALQSVLS [R3R5],IC50,[1]; IC50 (μM),12.7 ± 0.6 µM
same,IC50,[1]; [3],17.9 µM
QCPQLLLLAGLLAL [Cattle Q4C5],IC50,[1]; IC50 (uM) aa 4-17,2.6 ± 0.1 µM
QCPQVLLLAGLLGL [Eland Q4C5V8G16],IC50,[1]; IC50 (uM) aa 4-17,1.6 ± 0.1 µM
RCPQLLLLAGLLAL [Cattle R4C5],IC50,[1]; IC50 (uM) aa 4-17,14.5 ± 0.6 µM
RCPQVLLLAGLLGL [Eland R4C5V8G16],IC50,[1]; IC50 (uM) aa 4-17,33.3 ± 1.3 µM
RPQLLFLSGLLAL [Sheep R5F10S12],IC50,[1]; IC50 (uM) aa 5-17,16.1 ± 1 µM
RPQLLLL [(A) 5-11],IC50,[1]; IC50 (μM),64.8 ± 7.4 µM
RPQLLLLA [(A) 5-12],IC50,[1]; IC50 (μM),81.8 ± 13.6 µM
RPQLLLLAG [(A) 5-13],IC50,[1]; IC50 (μM),75 ± 11.3 µM
RPQLLLLAGL [(A) 5-14],IC50,[1]; IC50 (μM),23.1 ± 1.3 µM
RPQLLLLAGLL [(A) 5-15],IC50,[1]; IC50 (μM),26.4 ± 1.7 µM
RPQLLLLAGLLA [(A) 5-16],IC50,[1]; IC50 (μM),18 ± 0.8 µM
RPQLLLLAGLLAL [R5],IC50,[1]; IC50 (uM) aa 5-17,12.1 ± 0.6 µM
same,IC50,[1]; IC50 (μM),13.7 ± 0.6 µM
RPQLLLLAGLLSL [Water Buffalo R5S16],IC50,[1]; IC50 (uM) aa 5-17,13.9 ± 1 µM
